Assay results reported in ChEMBL document CHEMBL1157539, “Thousands of chemical starting points for antimalarial lead identification” (Nature, 2010).

System: Plasmodium falciparum
Assay: GSK_TCMDC: Inhibition of Plasmodium falciparum 3D7 in whole erythrocytes, using parasite LDH activity as an index of growth.
Type: functional, organism-based
Settings: Plasmodium falciparum, 3D7

`CCN1CCC(N(Cc2ccc(-c3ccc(C(F)(F)F)s3)cc2)C(=O)Cn2c(CCc3cccc(F)c3F)nc(=O)c3ccccc32)CC1` gave an XC50 of 0.932 µM.
Work on `CCN(CC)CCN(Cc1ccc(-c2ccc(C(F)(F)F)cc2)cc1)C(=O)Cn1cc(Cc2cnn(C)c2)c(=O)nc1/C=C/c1cccc(F)c1F` yielded an XC50 of 0.957 µM.
With `O=C(/C=C/c1ccc(I)cc1)NCCCCCN1CCC(c2c[nH]c3ccccc23)CC1` the XC50 was 0.836 µM.
Compound `CCN(CC(C)O)C(=O)c1ccc(-c2ccc(-c3nc4cccc(C)c4[nH]3)cc2)cc1` (stereo unspecified) has an XC50 of 0.84 µM.
With `CC(CN1CCN(C)CC1)C(=O)Nc1cccc(-c2ccc(-c3nc4cc(C(F)(F)F)ccc4[nH]3)cc2)c1` (stereo unspecified) the XC50 was 0.607 µM.
`CCOc1ccc(C=CC(=O)Nc2ccc3nc(N4CCN(C)CC4)cc(C)c3c2)cc1OC` showed an XC50 of 0.398 µM.
For `Cc1cccc2nc(-c3cccc(-c4ccc(NC(=O)c5ccncc5)cc4)c3)[nH]c12`, the XC50 was 0.497 µM.
For `CN1CCc2cc(NS(=O)(=O)c3ccc(-c4ccc(Cl)cc4)cc3)c(OCCCN3CCCCC3)cc2CC1`, the XC50 was 0.961 µM.
Work on `O=C(CSc1ccc(Cl)cc1)NC1CCC(CN2CCC(c3c[nH]c4ccccc34)CC2)CC1` (stereo unspecified) yielded an XC50 of 0.934 µM.
In the case of `N#Cc1ccc(N2CCN(Cc3ccc(-c4ccc(-c5nc6cc(C(F)(F)F)ccc6[nH]5)s4)cc3)CC2)nc1`, the XC50 is reported as 0.814 µM.
With `COc1ccc(CNCc2ccc(-c3cccc(-c4nc5cccc(C)c5[nH]4)c3)cc2)cc1` the XC50 was 0.13 µM.
`COc1ccc(N2CCc3c(-c4cccc5cnccc45)cc(C)nc32)c(C)c1` gave an XC50 of 0.655 µM.
With `CCCCn1c(C)c(C(=O)OCC)c2cc(OC(C)=O)c(Br)cc21` the XC50 was 0.625 µM.
Work on `O=C(Nc1ccc(I)cc1)N1CCc2sccc2C1CN1CCCCC1` (stereo unspecified) yielded an XC50 of 1.2 µM.
`COc1ccc2c(-c3ccccc3)noc2c1` gave an XC50 of 0.241 µM.
`CC(=O)Nc1ccc(C(=O)Nc2ccc(-c3csc(-c4nc5ccccc5[nH]4)c3)cc2)cn1` was tested, and the XC50 was 0.591 µM.
In the case of `CC=Cc1cc(Cc2c[nH]c(=N)[nH]c2=N)cc(CCC)c1OC`, the XC50 is reported as 0.783 µM.
In the case of `CS(=O)(=O)Cc1ccc(Nc2nccc(NC3CCN(c4nccc(C(F)(F)F)n4)CC3)n2)cc1`, the XC50 is reported as 0.896 µM.
`Cc1cnc(C(=O)Nc2ccc(-c3cccc(-c4nc5ccccc5[nH]4)c3)cc2)cn1` showed an XC50 of 0.833 µM.
`O=[N+]([O-])c1cccc(CNCC2CCN(Cc3ccc(-c4ccccc4)cc3)CC2)c1` gave an XC50 of 0.248 µM.
Compound `CCn1c(CN2CCC(C)CC2)nc2cc(NC(=O)c3cccs3)ccc21` has an XC50 of 0.565 µM.
`CCc1ccc(-n2cc(C(=O)c3cc(Br)ccc3O)cc(C#N)c2=O)cc1` gave an XC50 of 0.797 µM.
With `O=c1cc(-c2ccc3ccccc3c2)[nH]c2ccccc12` the XC50 was 1.16 µM.
Work on `C=C[C@H]1CN(CCCCCCC)CC[C@H]1CCNc1ccnc2ccc(OC)cc12` yielded an XC50 of 0.0618 µM.
For `O=C(COc1ccccc1)N(Cc1ccc(-c2ccc(CNC3Cc4ccccc4C3)cc2)cc1)C1CCNCC1`, the XC50 was 1.02 µM.
Work on `CC(=O)c1ccc(NC(=O)C2c3ccccc3C(=O)N(CC(C)C)C2c2cccs2)cc1` (stereo unspecified) yielded an XC50 of 1.32 µM.
`CCN(CC)CCOC(=O)c1ccc(NC(=O)c2cc(-c3ccc(C)cc3)nc3ccccc23)cc1` was tested, and the XC50 was 0.779 µM.
`CN(Cc1ccccc1)C1CCCN(c2cc(NC(=O)c3ccc(F)cc3)ccn2)C1` (stereo unspecified) showed an XC50 of 0.988 µM.
Work on `OC(CNC1CCCCC1)Cn1c2ccc(Br)cc2c2cc(Br)ccc21` (stereo unspecified) yielded an XC50 of 0.303 µM.
In the case of `CC(=O)Nc1cccc(C(=O)Nc2ccc(-c3cccc(-c4nc5cccc(C)c5[nH]4)c3)cc2)c1`, the XC50 is reported as 0.789 µM.
`Cc1cccc(OC2CCN(c3ncc(C(=O)NCCCN4CCCC4=O)cc3Cl)CC2)c1` gave an XC50 of 0.183 µM.
For `CC(C)(CNCc1cc(Cl)cc(Cl)c1)c1nc(-c2ccnc(N)n2)c(-c2ccc(Cl)c(O)c2)[nH]1`, the XC50 was 1.01 µM.
For `Cc1ccc(NC(=O)c2cccc(CN3CCCN(Cc4cccc(O)c4)CC3)c2)cc1`, the XC50 was 1.31 µM.
With `Cc1nc2nc(N)nc(N)c2c(C)c1Cc1ccc(C#N)cc1` the XC50 was 0.542 µM.
`O=c1cc(NCCCNCc2cc3ccc(Br)cc3s2)[nH]c2ccccc12` gave an XC50 of 0.99 µM.
`Nc1ccc2[nH]cc(C3CCN(CC4CCC(NC(=O)/C=C/c5ccccc5Cl)CC4)CC3)c2n1` (stereo unspecified) showed an XC50 of 0.688 µM.
Work on `COc1ccc(OC)c(C(O)C(C)NCc2cc(Cl)ccc2O)c1` (stereo unspecified) yielded an XC50 of 0.382 µM.
`CN1CCC(C(=O)Nc2cccc(-c3ccc(-c4nc5ccccc5[nH]4)cc3)c2)CC1` was tested, and the XC50 was 1.09 µM.
For `Cc1c(-c2cccc(CNCCc3ccc(Cl)cc3)c2)cnc(N)c1C`, the XC50 was 1.04 µM.
`c1ccc2c(CNCCCN3CCN(CCCNCc4c5ccccc5cc5ccccc45)CC3)c3ccccc3cc2c1` was tested, and the XC50 was 0.182 µM.
Compound `O=C(NC1CCN(c2ccnc(Nc3ccc(F)cc3)n2)C1)c1cc2ccccc2s1` (stereo unspecified) has an XC50 of 0.716 µM.
`COc1cc(C)nc2ccc(NC(=O)Nc3cccc4ccccc34)cc12` gave an XC50 of 0.878 µM.
In the case of `COc1ccc(NC(=O)c2ccc(OCCCCCCCOc3ccc(C(=O)Nc4ccc(OC)c(N5CCN(C)CC5)c4)cc3)cc2)cc1N1CCN(C)CC1`, the XC50 is reported as 0.598 µM.
In the case of `Nc1cc2c(C3CCN(CC4CCN(C(=O)/C=C/c5ccc(Cl)c(Cl)c5)CC4)CC3)c[nH]c2cn1`, the XC50 is reported as 0.975 µM.
`NC1=NC(c2ccccc2)(c2ccccc2)C(=O)N1CCCCc1ccccn1` showed an XC50 of 1.26 µM.
`Nc1nonc1-c1nc2c(-c3cccc(Cl)c3)nccc2n1CCCNC(=O)Cc1ccc(Cl)cc1` was tested, and the XC50 was 0.268 µM.
Compound `O=C(NCc1cccc(F)c1)Nc1cccc(-c2ccc(-c3nc4cc(C(F)(F)F)ccc4[nH]3)cc2)c1` has an XC50 of 0.766 µM.
`O=c1cc(NCCCNCc2cc(F)cc(C(F)(F)F)c2)[nH]c2ccccc12` gave an XC50 of 1.2 µM.
`CC(Nc1ncc(-c2ccsc2)c(-c2nccs2)n1)c1ccc2c(c1)OCCO2` (stereo unspecified) showed an XC50 of 0.175 µM.
Work on `CSc1ccc(CN2CCC(NC(=O)c3ccc(-c4ccc(N(C)C)cc4)s3)CC2)cc1` yielded an XC50 of 1.5 µM.
Work on `Clc1ccc(CNc2ccnc(NCc3cccnc3N3CCCC3)n2)c(Cl)c1` yielded an XC50 of 1.17 µM.
With `O=C(NOCCCCOc1ccc(Cl)c(Cl)c1)c1ccccc1` the XC50 was 0.183 µM.
`CCc1ccc(CN2CCC(CNC(=O)c3cc(-c4cccc(F)c4)cs3)C2)cc1` (stereo unspecified) showed an XC50 of 1.36 µM.
In the case of `CCCCCCCN1CC[C@@H](CCCc2ccnc3ccc(OCCN4CCNCC4)cc23)[C@@H](CC)C1`, the XC50 is reported as 0.771 µM.
`Cc1cccc2nc(-c3ccc(-c4ccc(CNCCCNS(C)(=O)=O)cc4)s3)[nH]c12` showed an XC50 of 0.999 µM.
`CCCOC(=O)c1ccc(OCCCON2C(=N)N=C(N)NC2(C)C)cc1` showed an XC50 of 0.0032 µM.
Work on `CN(CCCCCNC(=O)/C=C/c1ccc(Cl)c(Cl)c1)CCCCc1c[nH]c2ccccc12` yielded an XC50 of 1.08 µM.
Work on `O=C(Nc1ccccc1)Nc1cccc(-c2nn3c(OCCN4CCCC4)cccc3c2-c2ccncc2)c1` yielded an XC50 of 0.404 µM.
In the case of `CN(CCN1CCC(c2c[nH]c3ccccc23)CC1)c1ccc(-c2nc3cc(Cl)c(Cl)cc3[nH]2)cc1`, the XC50 is reported as 0.119 µM.
For `O=C(NC1CCN(Cc2ccccc2)CC1)c1ccc(-c2nc3cc(Cl)c(F)cc3[nH]2)s1`, the XC50 was 0.306 µM.
`O=C(N[C@H]1CCN(Cc2ccc(OCCN3CCCC3)c3ccccc23)C1)c1ccc(Cl)c(Cl)c1` was tested, and the XC50 was 0.746 µM.
With `CCOC(=O)c1ccc(NC(=O)N(Cc2ccc(-c3ccc(CN4CCNCC4)cc3)cc2)Cc2cccnc2)cc1` the XC50 was 0.926 µM.
Compound `FC(F)(F)c1ccc2[nH]c(-c3cccc(-c4ccc(CNCCc5ccncc5)cc4)c3)nc2c1` has an XC50 of 0.0989 µM.
`Cc1cc(=NN=Cc2ccc(Cl)cc2)c2cccc(C)c2[nH]1` gave an XC50 of 0.723 µM.
`CS(=O)(=O)NCCCNCc1ccc(-c2cccc(-c3nc4cc(F)ccc4[nH]3)c2)cc1` gave an XC50 of 0.804 µM.
Compound `CCOc1ccc(-c2nonc2NC(=O)c2cccc(Cl)c2)cc1OCC` has an XC50 of 0.147 µM.
For `Cc1cc(N[C@@H](Cc2ccccc2)C(=O)Nc2ccccc2)nc(NCCN2CCCC2)n1`, the XC50 was 1.81 µM.
For `CN1CCC(NCc2ccc(-c3cccc(S(=O)(=O)NCC4CCCO4)c3)cc2)CC1` (stereo unspecified), the XC50 was 0.939 µM.
In the case of `N#Cc1ccc(-c2ccc(C(=O)NC3CCN(CCN4CCC(c5cn(CCO)c6ccccc56)CC4)CC3)cc2)cc1`, the XC50 is reported as 0.758 µM.
For `COc1ccc2nccc(N3CCC(CCNCc4ccc5c(n4)NC(=O)CS5)CC3)c2n1`, the XC50 was 0.227 µM.
`Cc1nc(-c2nc(N3CCOCC3)ncc2-c2ccsc2)sc1C` was tested, and the XC50 was 0.315 µM.
`O=C(Nc1ccc(-c2ccccc2)cc1)Nc1cccc(Cn2ncc(N3CCCNCC3)c(Cl)c2=O)c1` showed an XC50 of 0.225 µM.
`COc1ccc2nc(C)cc(Nc3ccc(N4CCN(C)CC4)cc3)c2c1` showed an XC50 of 0.788 µM.
With `O=C(Cc1c(-c2ccccc2)[nH]c2ccccc12)NC1CCC(CN2CCC(c3c[nH]c4ccccc34)CC2)CC1` (stereo unspecified) the XC50 was 0.476 µM.
For `CC(C)(C)c1ccc(-c2nnc(N)nc2N)cc1`, the XC50 was 0.862 µM.
Compound `COc1ccc(Br)cc1/C=C/C(=O)Nc1ccc2c(c1)CCCN(C)C2` has an XC50 of 1.56 µM.
In the case of `CCNc1cc(C(=O)N[C@@H](Cc2ccccc2)[C@H](O)CN[C@@H](C)c2cccc(OC)c2)cc(N2CCCC2=O)c1`, the XC50 is reported as 0.769 µM.
Work on `O=C(Nc1ccc(C(F)(F)F)cc1)c1ccc(S(=O)(=O)NCC2CCCN(CC3CCCCC3)C2)cc1` (stereo unspecified) yielded an XC50 of 0.152 µM.
In the case of `Cc1cc(=O)c(-c2ccc(Oc3cccc(OC(F)(F)F)c3)cc2)c(C)[nH]1`, the XC50 is reported as 0.202 µM.
With `CCN(CCC1(c2ccc(Cl)c(Cl)c2)CN(C(=O)c2cc(OC)c(OC)c(OC)c2)CCO1)C1CC2c3ccccc3CC21` (stereo unspecified) the XC50 was 0.426 µM.
For `CN(C)CCNCc1ccc(-c2cccc(-c3nc4ccccc4[nH]3)c2)cc1`, the XC50 was 0.717 µM.
For `Cc1cccc2nc(-c3cccc(-c4cccc(NC(=O)c5cccnc5Cl)c4)c3)[nH]c12`, the XC50 was 0.707 µM.
`CCCCn1c(SC(C)C)nc2c(c1=O)C1(CCCCC1)Cc1ccccc1-2` showed an XC50 of 0.666 µM.
`Cc1ccc(F)cc1S(=O)(=O)Nc1cccc(CCN2CCC(N3CCCCC3)CC2)c1` showed an XC50 of 1.12 µM.
`CC(C)C[C@H](NC(=O)c1cc2ccccc2s1)C(=O)N[C@H]1CCN(Cc2ccc(I)c(OCCN3CCCC3)c2)C1` was tested, and the XC50 was 1.35 µM.
With `COc1cc(N)cc2sc(N)nc12` the XC50 was 0.251 µM.
For `CC(=O)Nc1cccc(Nc2nccc(-c3c(-c4cccc(NC(=O)c5c(F)cccc5F)c4)nn4ncccc34)n2)c1`, the XC50 was 0.184 µM.
`O=C(Nc1cc(=O)[nH]c2nc(-c3ccccc3)nn12)C1CCCCC1` showed an XC50 of 0.416 µM.
With `O=S(=O)(c1cccc(Cl)c1F)N(CCC(O)(C(F)(F)F)C(F)(F)F)Cc1cccc(O)c1` the XC50 was 0.918 µM.
For `COc1ccc2ncc(F)c(CCN3CCC[C@H](CNCc4ccc5c(n4)NC(=O)CS5)C3)c2n1`, the XC50 was 0.97 µM.
`CS(=O)(=O)CCNCc1nc(-c2ccc3ncnc(Nc4ccc(OCc5ccccc5)c(Cl)c4)c3c2)cs1` gave an XC50 of 0.802 µM.
With `O=C(NC1CCCCN(Cc2ccc3c(c2)OCCO3)C1)c1cc(-c2ccccc2F)cs1` (stereo unspecified) the XC50 was 1.05 µM.
Compound `Cc1ccc(NC(=O)c2ccc3ncccc3c2)cc1OC1CCN(C(C)C)C1` (stereo unspecified) has an XC50 of 0.991 µM.
Compound `Oc1cc(-c2nc(-c3ccccc3)[nH]c2-c2ccncc2)ccc1Cl` has an XC50 of 0.814 µM.
With `O=C(Nc1ccc(-c2cccc(-c3nc4ccccc4[nH]3)c2)cc1)c1cnn2cccnc12` the XC50 was 0.597 µM.
Compound `COC(=O)c1cccc(NC(=O)NC2CCN(c3ccnc(Nc4ccc(OC)cc4)n3)C2)c1` (stereo unspecified) has an XC50 of 0.472 µM.
